Results on three molecules are retold here after patent US5091379A, “Topical antinflammatory compositions with minimal systemic absorption” (Du Pont Merck Pharmaceutical Company, priority 1989, dated 1992).

Series [1] in a line: In vivo absorption: excretion of radioactivity in rat urine and feces. Also on record: species or system Male Sprague-Dawley rats. To be noted: for Percent of Dose Excreted in Feces / Percent of Dose Excreted in Urine / Percent of Dose Excreted, Total: IV 5 mg/kg. Here is the method: Approximately 10 mg of 14C-2-phenylmethyl-1-naphthol and 4.99 g of unlabeled 2-phenylmethyl-1-naphthol were used in the preparation of a 100 g 5% ointment or cream. The ointment was a PEG-based ointment and the cream was an oil-in-water emulsion. The specific activities for the ointment and cream were 2.71 and 2.78 uCi/g, respectively. An IV dosing solution (2.5 mg/mL) was prepared prior to dose administration by dissolving radiolabeled 14C-2-phenylmethyl-1-naphthol and unlabeled compound (1:1.5 ratio) in a PEG 400/water (60/40 v/v) solution.
Male Sprague-Dawley rats weighing 240-300 g were used for the studies. Sixteen rats were shaved on the back one day prior to the treatment. Eight of the rats had the application site abraded by a diamond-tipped marker (2 parallel lines and 2 interceding lines). The abrasion penetrated only the stratum corneum, but not the dermis. A 0.5 g dose of 14C-2-phenylmethyl-1-naphthol ointment or cream was applied to an area of approximately 4 cm^2 on 4 nonabraded and 4 abraded rats. The treatment site was covered with gauze and occluded with a dental dam. It was further secured by micropore tape and a strip of adhesive elastoplast. Each rat was placed in an open metabolism cage. […] Four other rats weighing 270-320 g were given an intravenous dose.
In order to determine the percent of dose in the ointment or cream that was absorbed percutaneously into the systemic circulation, an IV dose of 14C-2-phenylmethyl-1-naphthol was given to rats. The total radioactivity excreted after the IV dose serves as a reference for evaluation of topical absorption. […] The reason for the low radioactivity recovery is unknown. The percutaneous absorption from the ointment was about 2% of the applied dose. On the other hand, absorption from the cream was much higher and was about 28% of the dose.

A short description of series [2]: In vitro penetration through (inflammed) hairless mouse skin. Type of series: in vitro ADME. To be noted: Study I, 25 mg/0.1 ml acetone. Here is the method: The acetone vehicles were allowed to dry. […] The donor chamber was sealed with parafilm.
Studies were performed in which skin inflammation was induced in hairless mice in vivo, and permeability of that skin was evaluated in vitro. The three studies differed in the methods of producing inflammation. A non-inflammed control was run for each. The formulations tested were the oil/water cream and PEG ointment containing excipients (See Table 2) as in the previous example. There was no difference between the control and inflammed skin in active compound flux in all studies and for all formulations, except study II with 5% cream. […] As with human skin, acetone and cream vehicles consistently gave higher skin penetration rates than the PEG ointment.

The subject of series [3] is 5-lipoxygenase. To be noted: cited from earlier work.
The test system of series [4] is AA-induced edema. Briefly: AA-induced ear edema, topical antiinflammatory activity. Type of series: in vivo, Male CF1 mice. To be noted: for % Inhibition: 3 h pretreatment. How it is done: The AA model was also used to evaluate and compare PEG ointment formulations containing 2-phenylmethyl-1-naphthol with oil/water cream formulations containing 2-phenylmethyl-1-naphthol. These comparisons are illustrated in Examples 5 to 7.
Male 18-20 gram CF1 mice were used in these experiments. AA was made up fresh daily in acetone at a concentration of about 100 mg/ml. 10 μl of the AA solution (1 mg AA) was applied to the inner surface of the ear to induce swelling. […] Control animals were pretreated about 3 hours before AA application with placebo vehicles (drug free ointment or cream) with 5 mg of vehicle applied to both ears. Drug-treated animals were pretreated about 3 hours before AA application with 5 mg of the vehicle containing active drug, applied to both ears. AA was applied to 1 ear of each mouse. One hour after AA challenge, the animals were euthanized by cervical dislocation and both ears were removed. 6 mm disks were then taken using a skin biopsy punch and weighed. Swelling was determined as the difference between the weights of the AA and vehicle treated ears. Percent inhibition of swelling was calculated as follows: [formula]
Table 7 summarizes the data for PEG ointment and oil/water cream formulations containing various concentrations of active compound. Each data point is the average of 2 experiments with 10 animals per treatment cell.

Series [5] is described as follows: Hydrolysis of 2 to 3 in solution and during skin penetration. The format is physicochemical.

“And” between values parts separate entries of the source, which are not always exact repeats. Identical values can stand only once.

Take `Oc1c(Cc2ccccc2)ccc2ccccc12` [14C-1, 14C-2-phenylmethyl-1-naphthol]: the “Percent of Dose Excreted in Feces” value in series [1] (individual rats, 5 mg/kg) is 38.86% and 38.32% and 40.39% and 37.91%; in series [1] (mean of 4 rats), 38.87%. Further, the “Percent of Dose Excreted in Urine” value was 8.55% and 7.84% and 8.96% and 8.74% in series [1] (individual rats, 5 mg/kg); 8.52% in series [1] (mean of 4 rats). For the same molecule, the “Percent of Dose Excreted, Total” value in series [1] (individual rats, 5 mg/kg) is 47.41% and 46.16% and 49.35% and 46.65%; in series [1] (mean of 4 rats), 47.39%. In addition, the percutaneous absorption entry in series [1] (from PEG ointment, percent of applied dose) is on record as “about 2%”; in series [1] (from cream, percent of dose), “about 28%”. In series [1] (topical ointment or cream, daily collection), the “detectable radioactivity in the urine” value was “no detectable radioactivity was found in the urine”.

For `Oc1c(Cc2ccccc2)ccc2ccccc12` [compound 1, 2-(phenylmethyl)-1-naphthol], the entries for the “Lag Time” value in series [2] (AA inflammed skin) and in series [2] (control skin) were 13.8 ± 1.3 h and 10.8 ± 1.7 h, respectively. In addition, the “inhibition of 5-lipoxygenase” value in series [3] is “exceptionally potent inhibitors of 5-lipoxygenase”. Also, the “% Inhibition” value in series [4] (PEG ointment, 0.5% 1) is on record as 15%; in series [4] (PEG ointment, 1% 1) it was 62%; in series [4] (PEG ointment, 5% 1), 70%; in series [4] (PEG ointment, 10% 1), 90%; in series [4] (cream, 0.5% 1) it was 26%; in series [4] (cream, 1% 1) it was 60%. Also, the “% Inhibition” value in series [4] (cream, 5% 1) was 86%; in series [4] (cream, 10% 1) it was 87%. Also, the “inhibiting the edema induced by topical arachidonic acid” value in series [4] (mouse, in vivo) is recorded as “very potent in inhibiting the edema”.

Turning to `CC(=O)Oc1c(Cc2ccccc2)ccc2c1ccn2C` [compound 2, 1-methyl-4-acetoxy-5-phenylmethyl indole], in series [5], the hydrolysis entry is recorded as “hydrolyzes to 1-methyl-4-hydroxy-5-phenylmethyl indole (3)”.

As a reminder, the % Inhibition is the drop in the measured response relative to a control, in per cent.
